Species: Rattus norvegicus
Test: Open TG-GATES - Regimen: Single
Format: toxicity, organism-based, Sprague-Dawley
Set-up: regimen Single, gender Male, age 6 weeks
Conditions: in vivo, po, route gavage; for APTT / Bas / Eos / Fbg / Hb / Ht / Lym / MCH / MCHC / MCV / Mono / Neu / PT / Plat / RBC / Ret / WBC: tissue Blood; for KIDNEY_L / KIDNEY_R / KIDNEY_TOTAL: tissue Kidney; for LIVER: tissue Liver; for A/G / ALP / ALT / AST / BUN / CRE / Ca / Cl / DBIL / GLC / IP / K / LDH / Na / PL / RALB / TBIL / TC / TG / TP / gamma-GTP: tissue Plasma
[1] = 100 mg/kg, 3 h, dose level Middle
[2] = 100 mg/kg, 6 h, dose level Middle
[3] = 100 mg/kg, 9 h, dose level Middle
[4] = 100 mg/kg, 24 h, dose level Middle
[5] = 300 mg/kg, 3 h, dose level High
[6] = 300 mg/kg, 6 h, dose level High
[7] = 300 mg/kg, 9 h, dose level High
[8] = 300 mg/kg, 24 h, dose level High

CCc1oc2ccccc2c1C(=O)c1cc(I)c(O)c(I)c1 [BENZIODARONE]
TERMINAL_BW [1]: 215.5 g
APTT [1]: 16.9 s
Bas [1]: 0%
Eos [1]: 0.6%
Fbg [1]: 189.8 mg/dL
Hb [1]: 13.1 g/dL
Ht [1]: 39.1%
Lym [1]: 75.8%
MCH [1]: 21.8 pg
MCHC [1]: 33.6%
MCV [1]: 64.9 fL
Mono [1]: 8.8%
Neu [1]: 15%
PT [1]: 11.9 s
Plat [1]: 118.7 x10_4/uL
RBC [1]: 603 x10_4/ul
Ret [1]: 9.2%
WBC [1]: 94.2 x10_2/uL
KIDNEY_L [1]: 1 g
KIDNEY_R [1]: 1 g
KIDNEY_TOTAL [1]: 2 g
LIVER [1]: 10.2 g
A/G [1]: 2.1
ALP [1]: 966.8 IU/L
ALT [1]: 36.6 IU/L
AST [1]: 69 IU/L
BUN [1]: 12.6 mg/dL
CRE [1]: 0.5 mg/dL
Ca [1]: 10.5 mg/dL
Cl [1]: 102.4 meq/L
DBIL [1]: 0.02 mg/dL
GLC [1]: 201.2 mg/dL
IP [1]: 9.3 mg/dL
K [1]: 4.4 meq/L
LDH [1]: 110 IU/L
Na [1]: 140.4 meq/L
PL [1]: 128.6 mg/dL
RALB [1]: 3.5 g/dL
TBIL [1]: 0.5 mg/dL
TC [1]: 73.8 mg/dL
TG [1]: 52.4 mg/dL
TP [1]: 5.2 g/dL
gamma-GTP [1]: 1.8 IU/L
TERMINAL_BW [2]: 210.6 g
APTT [2]: 16.8 s
Bas [2]: 0%
Eos [2]: 1%
Fbg [2]: 217.8 mg/dL
Hb [2]: 13.6 g/dL
Ht [2]: 40.7%
Lym [2]: 73.2%
MCH [2]: 21.7 pg
MCHC [2]: 33.3%
MCV [2]: 65.1 fL
Mono [2]: 9.2%
Neu [2]: 16.4%
PT [2]: 11.8 s
Plat [2]: 109.1 x10_4/uL
RBC [2]: 625.8 x10_4/ul
Ret [2]: 10.1%
WBC [2]: 113.1 x10_2/uL
KIDNEY_L [2]: 0.9 g
KIDNEY_R [2]: 0.9 g
KIDNEY_TOTAL [2]: 1.9 g
LIVER [2]: 9.7 g
A/G [2]: 2
ALP [2]: 826.8 IU/L
ALT [2]: 32.6 IU/L
AST [2]: 61.2 IU/L
BUN [2]: 12.4 mg/dL
CRE [2]: 0.5 mg/dL
Ca [2]: 10.7 mg/dL
Cl [2]: 103.2 meq/L
DBIL [2]: 0.02 mg/dL
GLC [2]: 182.4 mg/dL
IP [2]: 9.9 mg/dL
K [2]: 4.6 meq/L
LDH [2]: 108.4 IU/L
Na [2]: 140.4 meq/L
PL [2]: 133 mg/dL
RALB [2]: 3.6 g/dL
TBIL [2]: 0.3 mg/dL
TC [2]: 74.4 mg/dL
TG [2]: 77.8 mg/dL
TP [2]: 5.4 g/dL
gamma-GTP [2]: 1.6 IU/L
TERMINAL_BW [3]: 209.5 g
APTT [3]: 16.8 s
Bas [3]: 0%
Eos [3]: 1%
Fbg [3]: 202.2 mg/dL
Hb [3]: 13.6 g/dL
Ht [3]: 40.8%
Lym [3]: 76.4%
MCH [3]: 21.3 pg
MCHC [3]: 33.3%
MCV [3]: 63.9 fL
Mono [3]: 7.4%
Neu [3]: 15.4%
PT [3]: 12.4 s
Plat [3]: 121.3 x10_4/uL
RBC [3]: 638.4 x10_4/ul
Ret [3]: 8.2%
WBC [3]: 86.5 x10_2/uL
KIDNEY_L [3]: 1 g
KIDNEY_R [3]: 0.9 g
KIDNEY_TOTAL [3]: 1.9 g
LIVER [3]: 8.9 g
A/G [3]: 2.3
ALP [3]: 766.6 IU/L
ALT [3]: 29.8 IU/L
AST [3]: 63.4 IU/L
BUN [3]: 13 mg/dL
CRE [3]: 0.5 mg/dL
Ca [3]: 10.3 mg/dL
Cl [3]: 105.2 meq/L
DBIL [3]: 0.07 mg/dL
GLC [3]: 194.8 mg/dL
IP [3]: 10.9 mg/dL
K [3]: 4.5 meq/L
LDH [3]: 108.8 IU/L
Na [3]: 142.4 meq/L
PL [3]: 122.8 mg/dL
RALB [3]: 3.7 g/dL
TBIL [3]: 0.3 mg/dL
TC [3]: 68.2 mg/dL
TG [3]: 56.6 mg/dL
TP [3]: 5.4 g/dL
gamma-GTP [3]: 0.6 IU/L
TERMINAL_BW [4]: 228.7 g
APTT [4]: 17.4 s
Bas [4]: 0%
Eos [4]: 1.2%
Fbg [4]: 196.8 mg/dL
Hb [4]: 13.2 g/dL
Ht [4]: 39.3%
Lym [4]: 73.8%
MCH [4]: 22 pg
MCHC [4]: 33.7%
MCV [4]: 65.4 fL
Mono [4]: 9.6%
Neu [4]: 15.6%
PT [4]: 12.1 s
Plat [4]: 113.1 x10_4/uL
RBC [4]: 601.2 x10_4/ul
Ret [4]: 9%
WBC [4]: 106.2 x10_2/uL
KIDNEY_L [4]: 1 g
KIDNEY_R [4]: 1 g
KIDNEY_TOTAL [4]: 2 g
LIVER [4]: 11.9 g
A/G [4]: 2.1
ALP [4]: 1017.4 IU/L
ALT [4]: 36.8 IU/L
AST [4]: 66 IU/L
BUN [4]: 17.8 mg/dL
CRE [4]: 0.5 mg/dL
Ca [4]: 10.6 mg/dL
Cl [4]: 104.8 meq/L
DBIL [4]: 0.006 mg/dL
GLC [4]: 196 mg/dL
IP [4]: 7.6 mg/dL
K [4]: 4.6 meq/L
LDH [4]: 87.6 IU/L
Na [4]: 140.8 meq/L
PL [4]: 129 mg/dL
RALB [4]: 3.7 g/dL
TBIL [4]: 0.4 mg/dL
TC [4]: 65.8 mg/dL
TG [4]: 84 mg/dL
TP [4]: 5.5 g/dL
gamma-GTP [4]: 1 IU/L
TERMINAL_BW [5]: 211.6 g
APTT [5]: 17 s
Bas [5]: 0%
Eos [5]: 0.2%
Fbg [5]: 206 mg/dL
Hb [5]: 13 g/dL
Ht [5]: 39%
Lym [5]: 75.8%
MCH [5]: 21.6 pg
MCHC [5]: 33.3%
MCV [5]: 65 fL
Mono [5]: 7.4%
Neu [5]: 16.4%
PT [5]: 11.9 s
Plat [5]: 107 x10_4/uL
RBC [5]: 600.4 x10_4/ul
Ret [5]: 11.4%
WBC [5]: 93.8 x10_2/uL
KIDNEY_L [5]: 0.9 g
KIDNEY_R [5]: 1 g
KIDNEY_TOTAL [5]: 1.9 g
LIVER [5]: 10 g
A/G [5]: 2
ALP [5]: 893 IU/L
ALT [5]: 37.8 IU/L
AST [5]: 64.6 IU/L
BUN [5]: 16.4 mg/dL
CRE [5]: 0.6 mg/dL
Ca [5]: 10.5 mg/dL
Cl [5]: 102 meq/L
DBIL [5]: 0.056 mg/dL
GLC [5]: 230.8 mg/dL
IP [5]: 9.7 mg/dL
K [5]: 4.7 meq/L
LDH [5]: 102.8 IU/L
Na [5]: 139 meq/L
PL [5]: 133.6 mg/dL
RALB [5]: 3.5 g/dL
TBIL [5]: 0.5 mg/dL
TC [5]: 71.4 mg/dL
TG [5]: 71.4 mg/dL
TP [5]: 5.3 g/dL
gamma-GTP [5]: 1.2 IU/L
TERMINAL_BW [6]: 214.2 g
APTT [6]: 18.2 s
Bas [6]: 0%
Eos [6]: 1%
Fbg [6]: 205.8 mg/dL
Hb [6]: 13 g/dL
Ht [6]: 38.8%
Lym [6]: 79%
MCH [6]: 21.9 pg
MCHC [6]: 33.6%
MCV [6]: 65.4 fL
Mono [6]: 3.6%
Neu [6]: 16.8%
PT [6]: 12.2 s
Plat [6]: 113.1 x10_4/uL
RBC [6]: 593.6 x10_4/ul
Ret [6]: 11.2%
WBC [6]: 70.8 x10_2/uL
KIDNEY_L [6]: 0.9 g
KIDNEY_R [6]: 1 g
KIDNEY_TOTAL [6]: 1.9 g
LIVER [6]: 9.4 g
A/G [6]: 2.1
ALP [6]: 980.4 IU/L
ALT [6]: 39.6 IU/L
AST [6]: 64.4 IU/L
BUN [6]: 14.6 mg/dL
CRE [6]: 0.6 mg/dL
Ca [6]: 10.4 mg/dL
Cl [6]: 102.8 meq/L
DBIL [6]: 0.052 mg/dL
GLC [6]: 235.6 mg/dL
IP [6]: 10.3 mg/dL
K [6]: 4.5 meq/L
LDH [6]: 89 IU/L
Na [6]: 140.2 meq/L
PL [6]: 129.4 mg/dL
RALB [6]: 3.6 g/dL
TBIL [6]: 0.4 mg/dL
TC [6]: 73.8 mg/dL
TG [6]: 36 mg/dL
TP [6]: 5.2 g/dL
gamma-GTP [6]: 1.4 IU/L
TERMINAL_BW [7]: 215.8 g
APTT [7]: 18.7 s
Bas [7]: 0%
Eos [7]: 0.6%
Fbg [7]: 208.2 mg/dL
Hb [7]: 13.5 g/dL
Ht [7]: 40.2%
Lym [7]: 80%
MCH [7]: 22.1 pg
MCHC [7]: 33.6%
MCV [7]: 65.7 fL
Mono [7]: 6.8%
Neu [7]: 12.8%
PT [7]: 12.2 s
Plat [7]: 114.6 x10_4/uL
RBC [7]: 612 x10_4/ul
Ret [7]: 9.3%
WBC [7]: 88.9 x10_2/uL
KIDNEY_L [7]: 1 g
KIDNEY_R [7]: 1 g
KIDNEY_TOTAL [7]: 2 g
LIVER [7]: 9 g
A/G [7]: 2.1
ALP [7]: 976.4 IU/L
ALT [7]: 38.2 IU/L
AST [7]: 63 IU/L
BUN [7]: 17 mg/dL
CRE [7]: 0.6 mg/dL
Ca [7]: 10.5 mg/dL
Cl [7]: 103.8 meq/L
DBIL [7]: 0.098 mg/dL
GLC [7]: 214 mg/dL
IP [7]: 10.8 mg/dL
K [7]: 4.7 meq/L
LDH [7]: 107.6 IU/L
Na [7]: 141.8 meq/L
PL [7]: 139.2 mg/dL
RALB [7]: 3.7 g/dL
TBIL [7]: 0.2 mg/dL
TC [7]: 75.4 mg/dL
TG [7]: 77 mg/dL
TP [7]: 5.4 g/dL
gamma-GTP [7]: 1.4 IU/L
TERMINAL_BW [8]: 220.7 g
APTT [8]: 16.9 s
Bas [8]: 0%
Eos [8]: 0.6%
Fbg [8]: 200.8 mg/dL
Hb [8]: 13.4 g/dL
Ht [8]: 39.8%
Lym [8]: 81%
MCH [8]: 21.7 pg
MCHC [8]: 33.8%
MCV [8]: 64.4 fL
Mono [8]: 6%
Neu [8]: 12.6%
PT [8]: 12.1 s
Plat [8]: 120.3 x10_4/uL
RBC [8]: 618.2 x10_4/ul
Ret [8]: 9.6%
WBC [8]: 106.3 x10_2/uL
KIDNEY_L [8]: 1 g
KIDNEY_R [8]: 1 g
KIDNEY_TOTAL [8]: 2 g
LIVER [8]: 11.9 g
A/G [8]: 2.2
ALP [8]: 1044.4 IU/L
ALT [8]: 36.2 IU/L
AST [8]: 67.2 IU/L
BUN [8]: 17.8 mg/dL
CRE [8]: 0.6 mg/dL
Ca [8]: 10.7 mg/dL
Cl [8]: 104 meq/L
DBIL [8]: 0.008 mg/dL
GLC [8]: 184.8 mg/dL
IP [8]: 8.3 mg/dL
K [8]: 4.6 meq/L
LDH [8]: 89.2 IU/L
Na [8]: 141.2 meq/L
PL [8]: 120.2 mg/dL
RALB [8]: 3.9 g/dL
TBIL [8]: 0.3 mg/dL
TC [8]: 66.6 mg/dL
TG [8]: 72 mg/dL
TP [8]: 5.7 g/dL
gamma-GTP [8]: 1.4 IU/L

Source: ChEMBL document CHEMBL3885861, “Open TG-GATES”
